Measurements published in PMC5608804, “Stepwise Evolution Improves Identification of Diverse Peptides Binding to a Protein Target” (Scientific Reports, 2017).

Biological target: T1, streptavidin (Streptomyces avidinii, UniProt P22629)
T1 construct: purchased GE Healthcare (Little Chalfont, UK)
Test: Cy5-streptavidin binding on HotSpot discovery array, 5-mer L-peptide library
Details: 5-mer L-peptide library array, Cy5-streptavidin; from average of three arrays
Summary of the method: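 Array of 2,476,099 5-mer peptides (19 amino acids, no cysteine) with Gly-Ser linkers, probed overnight at 4 °C with 0.5 µg/ml Cy5-streptavidin in Tris pH 7.4 buffer containing casein or BSA plus Tween-20. Cy5 fluorescence read at 635 nm; peptides selected by signal-to-background >4 across three arrays.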

T1 sequence (P22629 25-183): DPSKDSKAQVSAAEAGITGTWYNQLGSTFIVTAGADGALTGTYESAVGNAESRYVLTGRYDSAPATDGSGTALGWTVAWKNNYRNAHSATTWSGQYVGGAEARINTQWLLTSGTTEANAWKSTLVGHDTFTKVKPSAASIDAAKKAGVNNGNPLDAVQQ

| Substance | S/B (signal to background ratio) |
| --- | --- |
| RTHPQ | 125.7 |
| LPHPQ | 180.6 |
| GWHPQ | 190.5 |
| HSHPM | 54.9 |
| QHPQA | 138.2 |
| THPQH | 42.7 |
| HQHPM | 47.3 |
| LGHPQ | 171.2 |
| GHPMV | 21.8 |
| GVHPM | 31.6 |
| RVHPQ | 126.3 |
| HPQFR | 23.8 |
| GQHPM | 43.1 |
| HPQGE | 40.1 |
| RLHPM | 33.8 |
| ATHPQ | 135.7 |
| GRHPQ | 136.4 |
| PHPQT | 24.1 |
| HPQHG | 57.1 |
| HNHPM | 37.6 |
| FVHPQ | 150.1 |
| TMHPQ | 120.6 |

| Substance | S/B (signal to background ratio) |
| --- | --- |
| GSHPM | 43.0 |
| LHPQA | 128.0 |
| TPHPM | 44.1 |
| MYHPQ | 182.6 |
| QSHPM | 42.7 |
| WQHPQ | 199.1 |
| HLHPM | 40.7 |
| FHPQA | 138.8 |
| KFHPM | 29.8 |
| KPHPM | 21.9 |
| YHPQN | 176.5 |
| WQHPM | 142.1 |
| WTHPQ | 181.7 |
| AHPMS | 27.6 |
| HPQRW | 30.7 |
| VRHPQ | 151.4 |
| SHPQR | 26.8 |
| HSHPQ | 136.9 |
| SSHPM | 50.5 |
| QRHPQ | 154.5 |
| TFHPQ | 156.9 |
| LAMYH [L-amino acid 5-mer array peptide] | 22.8 |

| Substance | S/B (signal to background ratio) |
| --- | --- |
| TGHPM | 53.4 |
| SRHPQ | 154.4 |
| FHPMN | 26.9 |
| FKHPM | 44.4 |
| WKHPQ | 175.0 |
| FMHPQ | 206.0 |
| EEHPQ | 27.3 |
| LKHPM | 26.3 |
| APHPQ | 142.8 |
| WHPQN | 176.6 |
| MNHPQ | 166.1 |
| HPQGV | 45.0 |
| IMHPM | 35.1 |
| IAHPM | 46.1 |
| WHPQG | 184.5 |
| TQHPQ | 120.0 |
| VYHPQ | 168.1 |
| GHPQY | 40.1 |
| VMHPQ | 127.9 |
| MHPQA | 138.1 |

Same assay, conditions: 5-mer L-peptide library array, Cy5-streptavidin; from the average of three arrays

| Substance | S/B (signal to background ratio) |
| --- | --- |
| NKHPQ | 85.9 |
| HPQAP | 82.5 |
| VTHPQ | 113.4 |
| NQHPQ | 107.5 |
| DHPQG | 77.3 |
| RWHPM | 79.7 |
| HPQSG | 90.1 |
| TKHPQ | 61.5 |
| FNHPM | 96.1 |
| SHPQV | 98.7 |
| DNHPQ | 74.6 |
| MPHPM | 58.7 |
| VKHPQ | 64.6 |
| KSHPQ | 80.0 |
| SHPMA | 60.4 |
| QNHPM | 58.4 |

| Substance | S/B (signal to background ratio) |
| --- | --- |
| HPQGN | 108.4 |
| IVHPQ | 94.3 |
| LHPQV | 74.5 |
| HHPQV | 71.9 |
| WPHPM | 95.9 |
| HPQNP | 89.0 |
| GEHPQ | 63.7 |
| WEHPM | 69.6 |
| RHPQN | 86.1 |
| ADHPQ | 69.7 |
| YHPMA | 80.6 |
| LQHPM | 62.8 |
| YGHPM | 108.1 |
| FIHPM | 68.2 |
| DTHPQ | 68.3 |
| KLHPQ | 71.4 |

Same assay, conditions: 5-mer L-peptide library, from the average of three arrays

| Substance | S/B (signal to background ratio) |
| --- | --- |
| FDDFL [L-amino acid 5-mer array peptide] | 5.0 |
| FMFMI [L-amino acid 5-mer array peptide] | 4.3 |
| HPMQF | 4.9 |
| HFPQN | 4.1 |
| PLPDD [L-amino acid 5-mer array peptide] | 4.9 |
| WHGPQ | 4.5 |
| HPMFI | 4.7 |
| HPQQK | 4.4 |
| HPMRT | 4.3 |
| FYNFM [L-amino acid 5-mer array peptide] | 4.7 |
| LAFFH [L-amino acid 5-mer array peptide] | 4.9 |
| HPMST | 4.2 |
| HPRWM | 4.5 |
| GHPMK | 4.0 |
| HPMRA | 4.8 |

Same assay, conditions: average of three arrays, L-peptide 5-mer library

| Substance | S/B (signal to background ratio) |
| --- | --- |
| FDDFL [L-amino acid 5-mer array peptide] | 5.0 |
| MPWRN [L-amino acid 5-mer array peptide] | 5.2 |
| FMFMI [L-amino acid 5-mer array peptide] | 4.3 |
| LGRYH [L-amino acid 5-mer array peptide] | 9.7 |
| PLPDD [L-amino acid 5-mer array peptide] | 4.9 |
| LGIYH [L-amino acid 5-mer array peptide] | 10.5 |
| RHDLY [L-amino acid 5-mer array peptide] | 6.6 |
| MAMHF [L-amino acid 5-mer array peptide] | 17.9 |
| GYWTD [L-amino acid 5-mer array peptide] | 8.4 |
| LAMYH [L-amino acid 5-mer array peptide] | 22.8 |
| FYNFM [L-amino acid 5-mer array peptide] | 4.7 |
| LAFFH [L-amino acid 5-mer array peptide] | 4.9 |
| FDSWL [L-amino acid 5-mer array peptide] | 8.0 |

Same assay, conditions: signal to background ratio; 5-mer L-peptide library array, Cy5-streptavidin

| Substance | S/B |
| --- | --- |
| AHPMY | 7.7 |
| MPWRN [L-amino acid 5-mer array peptide] | 5.2 |
| LGRYH [L-amino acid 5-mer array peptide] | 9.7 |
| HPMHG | 13.1 |
| PHPQD | 15.6 |
| DSHPM | 17.9 |
| GHPQW | 18.1 |
| LGIYH [L-amino acid 5-mer array peptide] | 10.5 |
| FLHHP | 5.9 |
| WHPMK | 14.5 |
| HPLPW | 8.0 |
| RHDLY [L-amino acid 5-mer array peptide] | 6.6 |
| QHPMH | 12.4 |
| KHPMV | 6.9 |
| HPQRQ | 9.1 |
| EHPQI | 6.3 |
| HPMRW | 12.6 |
| HPMRS | 7.0 |
| AHPQI | 15.7 |

| Substance | S/B |
| --- | --- |
| MAMHF [L-amino acid 5-mer array peptide] | 17.9 |
| AHPMF | 10.8 |
| GYWTD [L-amino acid 5-mer array peptide] | 8.4 |
| HPMGV | 9.2 |
| HPMYY | 8.3 |
| HPMAQ | 7.2 |
| FHPQK | 14.2 |
| FHPQL | 7.4 |
| RHPMQ | 16.4 |
| HPQFK | 17.7 |
| YHPMY | 12.0 |
| HPQSW | 18.3 |
| HPMYH | 13.0 |
| FDSWL [L-amino acid 5-mer array peptide] | 8.0 |
| HPVPP | 12.4 |
| HPQST | 12.9 |
| YHPQL | 6.4 |
| HPWRF | 7.0 |
